From patent publication US20240018146A1, “COMPOSITIONS AND METHODS OF USING THE SAME FOR TREATMENT OF NEURODEGENERATIVE AND MITOCHONDRIAL DISEASE” (MITOKININ, INC., priority 2020, published 2024)
Like-named read-outs stand apart in the source and are kept apart here.

Legend:
HeLa MKYP cells [1] = assay: Human mitophagy assay (HeLa mKeima assay, FACS); assay type: cell-based; conditions: read-out: Mitophagy induction EC50
Protocol: Briefly, HeLa MKYP cells were plated at 10,000 cells/well in 96 well plates along with compounds at various concentrations. Following 16 hrs of incubation, cells were treated with 1 uM FCCP/oligomycin for 6 hours, then analyzed via FACS for the presence of mitochondria in lysosomes (as determined by an emissions spectrum shift from the pH-sensitive mtKeima tag).
Briefly, HeLa cells expressing a mitophagy indicator (mtKeima) protein were treated with […] of FCCP and Oligomycin followed by the specified dose of compound, then analyzed by FACS to quantify the percentage of cells undergoing mitophagy.

HeLa MKYP cells [2] = assay: Cell death measured by DAPI staining, with 1 μM FCCP/oligomycin or no toxin (no FO); assay type: cell-based
Protocol: EP-0035985, EP-0037821, EP-0038098, and EP-0038099 in the presence of 1 μM FCCP/oligomycin or with no toxin (no FO) for 6 hrs. H2O2 treatment was performed as a control for cell death as measured by DAPI staining.
EP-0035985, EP-0038461, EP-0038463, and EP-0038503 in the presence of 1 μM FCCP/oligomycin or with no toxin (no FO) for 6.5 hrs. H2O2 treatment was performed as a control for cell death as measured by DAPI staining.
EP-0035985, EP-0038504, EP-0038508, and EP-0038521 in the presence of 1 μM FCCP/oligomycin or with no toxin (no FO) for 6.5 hrs. H2O2 treatment was performed as a control for cell death as measured by DAPI staining.
EP-0035985, EP-0038461, EP-0038463, EP-0038503, EP-0038504, EP-0038508, and EP-0038521 in the presence of 1 μM FCCP/oligomycin or with no toxin (no FO) for 6.5 hrs. H2O2 treatment was performed as a control for cell death as measured by DAPI staining.

Structure (SMILES) | EC50 (HeLa MKYP cells [1]; Homo sapiens, HeLa) [µM] | Highest safe dose (cytotoxicity; no FO; safe means DAPI+ <20%) (HeLa MKYP cells [2]) [µM] | Max % death with 1 μM FO (HeLa MKYP cells [2]) [%] | EC50 (HeLa MKYP cells [1]) [µM]
C[C@H]1CN([C@@H]2CCc3ccccc3[C@H]2Nc2ncnc3[nH]c(C(F)(F)F)cc23)CCO1 (single isomer, unassigned) [EP-0040504] | 9.33 | 25.0 | 2.0 | 
Fc1cccc2c1CC[C@H](N1C[C@H]3COC[C@H]3C1)[C@H]2Nc1ncnc2[nH]c(C(F)(F)F)cc12 (single isomer, unassigned) [EP-0040505] | 13.5 | 25.0 | 14.3 | 
C[C@H]1CN([C@@H]2CCc3ccccc3[C@H]2Nc2ncnc3[nH]c(C4CC4)cc23)CCO1 (single isomer, unassigned) [EP-0040512] | 12.1 | 25.0 | 26.7 | 
Fc1ccc2c(c1)OC[C@H](N1C[C@@H]3COC[C@H]3C1)[C@H]2Nc1ncnc2[nH]c(C(F)(F)F)cc12 (single isomer, unassigned) [EP-0040562] | 1.5 | 25.0 | 7.9 | 
Fc1ccc2c(c1)OC[C@H](N1C[C@H]3COC[C@@H]3C1)[C@H]2Nc1ncnc2[nH]c(C(F)(F)F)cc12 (single isomer, unassigned) [EP-0040563] |  | 25.0 | 9.7 | 1.05
Fc1cccc2c1CC[C@H](N1C[C@H]3COC[C@H]3C1)[C@H]2Nc1ncnc2[nH]c(C3CC3)cc12 (single isomer, unassigned) [EP-0040576] | 2.79 | 25.0 | 21.2 | 
CN1CCN([C@H]2CCc3ccccc3[C@@H]2Nc2ncnc3[nH]c(C(F)(F)F)cc23)CC1 (single isomer, unassigned) [EP-0040578] | 3.54 | 25.0 | 14.4 | 
CN1CCN([C@@H]2CCc3ccccc3[C@H]2Nc2ncnc3[nH]c(C(F)(F)F)cc23)CC1 (single isomer, unassigned) [EP-0040579] | 9.02 | 25.0 | 20.3 | 
FC(F)(F)c1cc2c(N[C@@H]3c4ccccc4CC[C@H]3C3CCOCC3)ncnc2[nH]1 (single isomer, unassigned) [EP-0040581] | 2.69 | 25.0 | 8.1 | 
FC(F)(F)c1cc2c(N[C@H]3c4ccccc4OC[C@@H]3C3CCOCC3)ncnc2[nH]1 (single isomer, unassigned) [EP-0040699] | > 25 | 25.0 | 3.7 | 
Fc1ccc2c(c1)CC[C@H](N1C[C@H]3COC[C@H]3C1)[C@H]2Nc1ncnc2[nH]c(C(F)(F)F)cc12 (single isomer, unassigned) [EP-0040720] | 6.25 | 25.0 | 12.1 | 
OC1CC2(C1)CN([C@H]1COc3ccccc3[C@@H]1Nc1ncnc3[nH]c(C(F)(F)F)cc13)C2 (single isomer, unassigned) [EP-0040725] | > 25 | 25.0 | 3.4 | 
Fc1ccc2c(c1)OC[C@H](N1C[C@H]3COC[C@@H]3C1)[C@H]2Nc1ncnc2[nH]c(C(F)(F)F)cc12 (single isomer, unassigned) [EP-0040747] |  | 25.0 | 5.8 | > 25
Fc1ccc2c(c1)OC[C@H](N1C[C@@H]3COC[C@H]3C1)[C@H]2Nc1ncnc2[nH]c(C3CC3)cc12 (single isomer, unassigned) [EP-0040873] |  | 25.0 | 4.3 | > 25
FC(F)(F)c1cc2c(N[C@H]3c4ccccc4OC[C@@H]3C3CCCOC3)ncnc2[nH]1 (single isomer, unassigned) [EP-0041002] | 6.18 | 25.0 | 4.5 | 
FC(F)(F)c1cc2c(N[C@H]3c4ccc(Br)cc4OC[C@@H]3N3CCOCC3)ncnc2[nH]1 (single isomer, unassigned) [EP-0041021] | 3.38 | 25.0 | 13.2 | 
COC[C@@H]1CCN([C@H]2COc3ccccc3[C@@H]2Nc2ncnc3[nH]c(C(F)(F)F)cc23)C1 (single isomer, unassigned) [EP-0041072] |  | 25.0 | 8.0 | > 25
COC1CN([C@H]2COc3cc(F)ccc3[C@@H]2Nc2ncnc3[nH]c(C(F)(F)F)cc23)C1 (single isomer, unassigned) [EP-0041089] | 1.97 | 25.0 | 10.2 | 
COC[C@H]1CCN([C@H]2COc3ccccc3[C@@H]2Nc2ncnc3[nH]c(C(F)(F)F)cc23)C1 (single isomer, unassigned) [EP-0041174] |  | 25.0 | 4.6 | 15.3
[2H]C([2H])([2H])OC1CN([C@H]2COc3ccccc3[C@@H]2Nc2ncnc3[nH]c(C(F)(F)F)cc23)C1 (single isomer, unassigned) [EP-0041248] | 0.49 | 25.0 | 10.5 | 
CC1(O)CN([C@@H]2COc3ccccc3[C@H]2Nc2ncnc3[nH]c(C(F)(F)F)cc23)C1 (single isomer, unassigned) [EP-0041264] | > 25 | 25.0 | 2.5 | 
OC(C1CCOCC1)C1COc2ccccc2C1Nc1ncnc2[nH]c(C(F)(F)F)cc12 (single isomer, unassigned) [EP-0041269] |  | 25.0 | 2.9 | > 25
OC(C1CCOCC1)C1COc2ccccc2C1Nc1ncnc2[nH]c(C(F)(F)F)cc12 (single isomer, unassigned) [EP-0041270] |  | 25.0 | 11.6 | 0.86
COC1(C)CN(C2COc3ccccc3C2Nc2ncnc3[nH]c(C(F)(F)F)cc23)C1 (single isomer, unassigned) [EP-0041300] | 4.35 | 25.0 | 11.1 | 
FC1COCCC1[C@H]1COc2ccccc2[C@@H]1Nc1ncnc2[nH]c(C(F)(F)F)cc12 (single isomer, unassigned) [EP-0041322] |  | 25.0 | 11.0 | > 25
FC1COCCC1[C@H]1COc2ccccc2[C@@H]1Nc1ncnc2[nH]c(C(F)(F)F)cc12 (single isomer, unassigned) [EP-0041323] |  | 25.0 | 9.2 | 11
FC1COCCC1[C@H]1COc2ccccc2[C@@H]1Nc1ncnc2[nH]c(C(F)(F)F)cc12 (single isomer, unassigned) [EP-0041324] |  | 25.0 | 10.4 | 12.3
FC1COCCC1[C@H]1COc2ccccc2[C@@H]1Nc1ncnc2[nH]c(C(F)(F)F)cc12 (single isomer, unassigned) [EP-0041325] |  | 25.0 | 5.5 | 18.8
